For one experiment, the target named is T1, AuroraA-TPX2 (Homo sapiens, UniProt O14965).
T1 construct: 20 μL of AuroraA-TPX2 KD GST for a final volume of about 41 μL; GST
T1 sequence (O14965 133-383 limits assumed): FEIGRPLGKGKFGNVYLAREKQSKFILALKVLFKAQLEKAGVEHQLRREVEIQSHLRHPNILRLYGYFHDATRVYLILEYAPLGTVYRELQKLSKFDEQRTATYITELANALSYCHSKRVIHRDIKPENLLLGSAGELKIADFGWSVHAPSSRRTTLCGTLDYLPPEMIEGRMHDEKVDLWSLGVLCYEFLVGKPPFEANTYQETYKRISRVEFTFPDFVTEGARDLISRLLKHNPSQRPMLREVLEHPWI
T1 sequence (Q9ULW0 1-43 partner limits assumed): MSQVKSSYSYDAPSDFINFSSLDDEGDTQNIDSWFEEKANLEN
Kind of experiment: AuroraA-TPX2 Homogeneous Time Resolved Fluorescent (HTRF) kinase assay. The format is biochemical. The conditions noted are these: average; read-out: AurA_IC50_IP (uM Avg). In short, it runs like this: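 HTRF read-out (Eu 615 nm to APC 655 nm) of phosphorylated biotin-PLK, detected with 0.02 nM europium anti-phosphoPLK antibody and 0.0005 mg/mL SA-APC after overnight equilibration.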

The next experiment addresses T2, AuroraB (Homo sapiens, UniProt Q96GD4).
T2 construct: 20 μL of AuroraB FL H is for a final volume of 41 μL; His
Kind of experiment: AuroraB Homogeneous Time Resolved Fluorescent (HTRF) kinase assay. The format is biochemical. The conditions noted are these: average; read-out: AurB_IC50_IP (uM Avg). The method, boiled down: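 Full-length His-tagged kinase phosphorylates biotinylated Histone H3 (0.1 μM final) with ATP in pH 7.5 HEPES containing MgCl, MnCl, DTT and BSA for about 90 min. EDTA-containing detection mix with SA-APC and Eu-anti-phosphoHistone H3 then equilibrated about 60 min; HTRF read with 320 nm excitation, emissions 615/655 nm.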
(In general: TR-FRET usually uses a lanthanide donor and a delayed reading to cut background.)

We go through 43 compounds from patent publication US8557816B2, “Aurora kinase modulators and method of use” (Amgen Inc., priority 2007, dated 2013).

T2 sequence (Q96GD4 whole entry): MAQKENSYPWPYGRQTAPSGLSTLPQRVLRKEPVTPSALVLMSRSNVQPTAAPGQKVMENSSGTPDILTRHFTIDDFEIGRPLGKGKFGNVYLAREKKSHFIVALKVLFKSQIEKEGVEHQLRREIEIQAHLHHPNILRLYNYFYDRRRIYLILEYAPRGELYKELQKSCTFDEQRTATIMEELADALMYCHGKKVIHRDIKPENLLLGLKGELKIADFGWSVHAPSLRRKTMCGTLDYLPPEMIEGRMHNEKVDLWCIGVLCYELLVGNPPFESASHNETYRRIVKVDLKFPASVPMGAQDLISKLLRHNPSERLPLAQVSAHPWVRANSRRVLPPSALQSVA

On to `COc1cnnc(Nc2ccc(Oc3ccnc4cc(OC)cnc34)cc2)c1` [compound 456], for which the IC50 on AuroraA-TPX2 was found to be 1 µM; at AuroraB, 0.058 µM.
Taken in the same sequence, the figures for `N#Cc1cc2nccc(Sc3ccc(Nc4nnc(-c5ccc6c(c5)OCO6)c5ccccc45)cc3)c2s1` [compound 457] were 0.062 µM and 0.015 µM.
Taken in the same sequence, the figures for `N#Cc1cc2nccc(Sc3ccc(Nc4nnc(-c5ccccc5)c5ccccc45)cc3)c2s1` [compound 458] were > 25 µM and 0.097 µM.
Taken in the same sequence, the figures for `Cc1csc(-c2nnc(Nc3ccc(Sc4ccnc5cc(C#N)sc45)cc3)c3ccccc23)c1` [compound 459] were 0.21 µM and 0.15 µM.
Take `N#Cc1cc2nccc(Sc3ccc(Nc4nnc(-c5ccc(Cl)cn5)c5ccccc45)cc3)c2s1` [compound 460]: the IC50 at AuroraA-TPX2 was 0.045 µM; at AuroraB it was 0.015 µM.
On the same counts, the results for `Cc1ccc(-c2nnc(Nc3ccc(Sc4ccnc5cc(C#N)sc45)cc3)c3ccccc23)cn1` [compound 461] are 0.044 µM and 0.009 µM.
For `c1ccc(-c2nnc(Nc3ccc(Sc4ccnc5cc[nH]c45)cc3)c3ccccc23)cc1` [compound 462, 4-phenyl-N-(4-(1H-pyrrolo[3,2-b]pyridin-7-ylthio)phenyl)-1-phthalazinamine], the IC50 at AuroraA-TPX2 was found to be 0.557 µM; on AuroraB, 0.01 µM.
For the compound `Clc1ccc(-c2nnc(Nc3ccc(Sc4ccnc5cc[nH]c45)cc3)c3ccccc23)cc1` [compound 463, 4-(4-chlorophenyl)-N-(4-(1H-pyrrolo[3,2-b]pyridin-7-ylthio)phenyl)-1-phthalazinamine], the IC50 on AuroraA-TPX2 came out at 0.146 µM; at AuroraB, 0.008 µM.
Taken in the same sequence, the figures for `Cc1csc(-c2nnc(Nc3ccc(Sc4ccnc5cc[nH]c45)cc3)c3ccccc23)c1` [compound 464, 4-(4-methyl-2-thienyl)-N-(4-(1H-pyrrolo[3,2-b]pyridin-7-ylthio)phenyl)-1-phthalazinamine] were 0.088 µM and 0.006 µM.
Take `Clc1ccc(-c2nnc(Nc3ccc(Sc4ccnc5ccoc45)cc3)c3ccccc23)cc1` [compound 465]: the IC50 at AuroraA-TPX2 came to 0.093 µM; on AuroraB it was 0.012 µM.
For `c1ccc(-c2nnc(Nc3ccc(Sc4ccnc5ccoc45)cc3)c3ccccc23)cc1` [compound 466], the values for the IC50 at AuroraA-TPX2 and at AuroraB were 0.431 µM and 0.013 µM, respectively.
On the same counts, the results for `c1ccc2c(-c3ccc4c(c3)OCO4)nnc(Nc3ccc(Sc4ccnc5ccoc45)cc3)c2c1` [compound 467] are 0.095 µM and 0.01 µM.
On the same counts, the results for `Cc1csc(-c2nnc(Nc3ccc(Sc4ccnc5ccoc45)cc3)c3ccccc23)c1` [compound 468] are 0.129 µM and 0.029 µM.
As to `COCCn1ccc2nccc(Sc3ccc(Nc4nnc(-c5ccc(Cl)cc5)c5ccccc45)cc3)c21` [compound 469, 4-(4-chlorophenyl)-N-(4-((1-(2-(methyloxy)ethyl)-1H-pyrrolo[3,2-b]pyridin-7-yl)thio)phenyl)-1-phthalazinamine], the figures for the IC50 on AuroraA-TPX2 and on AuroraB were 0.11 µM and 0.053 µM, respectively.
Taken in the same sequence, the figures for `COCCn1ccc2nccc(Sc3ccc(Nc4nnc(-c5cc(C)cs5)c5ccccc45)cc3)c21` [compound 470, N-(4-((1-(2-(methyloxy)ethyl)-1H-pyrrolo[3,2-b]pyridin-7-yl)thio)phenyl)-4-(4-methyl-2-thienyl)-1-phthalazinamine] were 0.041 µM and 0.051 µM.
Taken in the same sequence, the figures for `CC(C)n1ccc2nccc(Sc3ccc(Nc4nnc(-c5ccc(Cl)cc5)c5ccccc45)cc3)c21` [compound 471, 4-(4-chlorophenyl)-N-(4-((1-(1-methylethyl)-1H-pyrrolo[3,2-b]pyridin-7-yl)thio)phenyl)-1-phthalazinamine] were 0.09 µM and 0.049 µM.
`Cc1csc(-c2nnc(Nc3ccc(Sc4ccnc5ccn(C(C)C)c45)cc3)c3ccccc23)c1` [compound 472, N-(4-((1-(1-methylethyl)-1H-pyrrolo[3,2-b]pyridin-7-yl)thio)phenyl)-4-(4-methyl-2-thienyl)-1-phthalazinamine]: the figures for the IC50 at AuroraA-TPX2 and at AuroraB were 0.064 µM and 0.099 µM, respectively.
On the same counts, the results for `COCCOc1ccc(-c2nnc(Nc3ccc(Sc4ccnc5cc(OC)cnc45)cc3)c3ccccc23)cc1OCCOC` [compound 473] are 0.073 µM and 0.011 µM.
Regarding `COCCOc1ccc(-c2nnc(Nc3ccc(Sc4ccnc5cc(OC)cnc45)cc3)c3ccccc23)cc1` [compound 474], the figures for the IC50 at AuroraA-TPX2 and at AuroraB were 0.051 µM and 0.016 µM, respectively.
On the same counts, the results for `COCCOCCOc1ccc2nccc(Sc3ccc(Nc4nnc(-c5ccc(Cl)cc5)c5ccccc45)cc3)c2n1` [compound 475] are 0.035 µM and 0.026 µM.
Taken in the same sequence, the figures for `COCCOCCn1c(=O)ccc2nccc(Sc3ccc(Nc4nnc(-c5ccc(Cl)cc5)c5ccccc45)cc3)c21` [compound 476] were 0.746 µM and 0.293 µM.
On the same counts, the results for `COc1cnc2c(Sc3ccc(Nc4nnc(-c5ccc(C)c(N)c5)c5ccccc45)cc3)ccnc2c1` [compound 477] are 0.009 µM and 0.026 µM.
Turning to `COC1CCN(c2nnc(Nc3ccc(Oc4ccnc5ccoc45)cc3)c3ccccc23)CC1` [compound 478], the IC50 at AuroraA-TPX2 amounted to 2.03 µM; at AuroraB, 0.074 µM.
Taken in the same sequence, the figures for `Cc1ccc(-c2nnc(Nc3ccc(Sc4ccnc5ccoc45)cc3)c3ccccc23)cc1N` [compound 479] were > 125 µM and > 125 µM.
Regarding `Cc1ccc(-c2nnc(Nc3ccc(Oc4ccnc5ccoc45)cc3)c3ccccc23)cc1N` [compound 480], the figures for the IC50 on AuroraA-TPX2 and on AuroraB were 0.162 µM and 0.013 µM, respectively.
On the same counts, the results for `Cc1ccc(-c2nnc(Nc3ccc(Sc4ccnc5ccoc45)cc3)c3ccccc23)cn1` [compound 481] are 0.341 µM and 0.002 µM.
On the same counts, the results for `Cc1ccc(-c2nnc(Nc3ccc(Sc4ccnc5ccoc45)cc3)c3ccccc23)nc1` [compound 482] are 0.415 µM and 0.004 µM.
Taken in the same sequence, the figures for `Clc1ccc(-c2nnc(Nc3ccc(Oc4ccnc5ccoc45)cc3)c3ccccc23)cc1` [compound 483] were 0.583 µM and 0.013 µM.
Regarding `C[Si](C)(C)c1cc2nccc(Sc3ccc(Nc4nnc(Cl)c5ccccc45)cc3)c2o1` [compound 484], the IC50 at AuroraA-TPX2 was > 125 µM; on AuroraB it was 0.107 µM.
Taken in the same sequence, the figures for `COc1ccc(-c2nnc(Nc3ccc(Sc4ccnc5ccoc45)cc3)c3ccccc23)cn1` [compound 485] were 0.479 µM and 0.005 µM.
Taken in the same sequence, the figures for `Clc1ccc(-c2nnc(Nc3ccc(Sc4ccnc5cc(C6CC6)oc45)cc3)c3ccccc23)cc1` [compound 486] were 0.141 µM and 0.018 µM.
With `Cc1cccc(-c2nnc(Nc3ccc(Sc4ccnc5ccoc45)cc3)c3ccccc23)n1` [compound 488], the IC50 on AuroraA-TPX2 was 1.29 µM; on AuroraB, 0.015 µM.
Taken in the same sequence, the figures for `N#Cc1cc2nccc(Sc3ccc(Nc4nnc(-c5ccc(Cl)cc5)c5ccccc45)cc3)c2o1` [compound 489] were 0.09 µM and 0.019 µM.
Consider `Cc1ccc(-c2nnc(Nc3ccc(Sc4ccnc5cc(C#N)oc45)cc3)c3ccccc23)cc1N` [compound 490], for which the values for the IC50 at AuroraA-TPX2 and at AuroraB were 0.09 µM and 0.013 µM, respectively.
On the same counts, the results for `Cc1cc2nccc(Sc3ccc(Nc4nnc(-c5ccc(Cl)cc5)c5ccccc45)cc3)c2o1` [compound 491] are 0.15 µM and 0.039 µM.
On the same counts, the results for `Cc1cc2nccc(Sc3ccc(Nc4nnc(-c5ccc(C)c(N)c5)c5ccccc45)cc3)c2o1` [compound 492] are 0.142 µM and 0.046 µM.
On the same counts, the results for `Clc1ccc(-c2nnc(Nc3ccc(Sc4ccnc5cccnc45)cc3)c3ccccc23)nc1` [compound 493] are 0.02 µM and 0.002 µM.
As to `COc1cc2nccc(Sc3ccc(Nc4nnc(-c5cc(C)cs5)c5ccccc45)cc3)c2cn1` [compound 494], the IC50 was found to be 0.026 µM at AuroraA-TPX2 and 0.017 µM on AuroraB.
Taken in the same sequence, the figures for `COc1cnc2c(Sc3ccc(Nc4nnc(-c5ccccc5F)c5ccccc45)cc3)ccnc2c1` [compound 495] were 0.15 µM and 0.026 µM.
On to `FC(F)(F)Oc1ccc2c(Oc3ccc(Nc4nnc(-c5ccccc5)c5ccccc45)cc3)ccnc2c1` [compound 496], for which the IC50 stood at 1.04 µM at AuroraA-TPX2 and 0.374 µM at AuroraB.
As for `FC(F)(F)Oc1ccc2c(Sc3ccc(Nc4nnc(-c5ccccc5)c5ccccc45)cc3)ccnc2c1` [compound 497], the IC50 on AuroraA-TPX2 is > 25 µM; at AuroraB it was 0.333 µM.
In the case of `FC(F)(F)Oc1ccc2c(Oc3ccc(Nc4nnc(-c5ccc(Cl)cc5)c5ccccc45)cc3)ccnc2c1` [compound 498], the results for the IC50 at AuroraA-TPX2 and on AuroraB were 0.183 µM and 0.165 µM, respectively.
`Cc1csc(-c2nnc(Nc3ccc(Sc4ccnc5cc(OC(F)(F)F)ccc45)cc3)c3ccccc23)c1` [compound 499]: the IC50 on AuroraA-TPX2 amounted to 0.277 µM; at AuroraB it was 0.363 µM.
